How the values were obtained:
[1] = target: human LSD-1 (Homo sapiens (Human), UniProt O60341); test: In vitro enzyme inhibition assay LSD-1 (TR-FRET); type: biochemical; details: TR-FRET, H3K4me1-biotin labeled peptide
Description: This assay determines the ability of a test compound to inhibit LSD-1 demethylase activity.
The enzymatic assay of LSD-1 activity is based on Time Resolved-Fluorescence Resonance Energy Transfer (TR-FRET) detection.

[2] = system: CD11b expression in THP-1 (AML) cells; test: LSD-1 CD11b cellular assay (flow cytometry); details: Homo sapiens, THP-1, 96 h, read-out: THP-1 IC50

IC50 [1] [µM] | IC50 [2] [µM] | Compound
< 0.1 | < 0.1 | COCCOc1ccc(-c2c(-c3ccc(C#N)c(F)c3)nc(N3CCC(N)CC3)n(C)c2=O)cc1 [Example 98, 4-[2-(4-aminopiperidin-1-yl)-5-[4-(2-methoxyethoxy)phenyl]-1-methyl-6-oxopyrimidin-4-yl]-2-fluorobenzonitrile]
< 0.1 | < 0.1 | Cn1c(N2CCC(N)CC2)nc(-c2ccc(C#N)c(F)c2)c(-c2ccc(CO)cc2)c1=O [Example 100, 4-[2-(4-aminopiperidin-1-yl)-5-[4-(hydroxymethyl)phenyl]-1-methyl-6-oxopyrimidin-4-yl]-2-fluorobenzonitrile]
< 0.1 | < 0.1 | Cn1c(N2CCC(N)CC2)nc(-c2ccc(C#N)c(F)c2)c(-c2ccc3occc3c2)c1=O [Example 18, 4-[2-(4-amino-piperidin-1-yl)-5-benzofuran-5-yl-1-methyl-6-oxo-1,6-dihydro-pyrimidin-4-yl]-2-fluoro-benzonitrile]
< 0.1 | < 0.1 | Cn1c(N2CCC(N)CC2)nc(-c2ccc(C#N)c(F)c2)c(-c2ccc(Cl)cc2)c1=O [Example 106, 4-[2-(4-aminopiperidin-1-yl)-5-(4-chlorophenyl)-1-methyl-6-oxopyrimidin-4-yl]-2-fluorobenzonitrile]
< 0.1 | < 0.1 | Cn1c(N2CCC(N)CC2)nc(-c2ccc(C#N)c(F)c2)c(-c2ccc(OCCO)cc2)c1=O [Example 96, 4-[2-(4-aminopiperidin-1-yl)-5-[4-(2-hydroxyethoxy)phenyl]-1-methyl-6-oxopyrimidin-4-yl]-2-fluorobenzonitrile]
< 0.1 | < 0.1 | CCOc1ncc(-c2c(-c3ccc(C#N)c(F)c3)nc(N3CCC(N)CC3)n(C)c2=O)cc1F [Example 93, 4-[2-(4-aminopiperidin-1-yl)-5-(6-ethoxy-5-fluoropyridin-3-yl)-1-methyl-6-oxopyrimidin-4-yl]-2-fluorobenzonitrile]
< 0.1 | < 0.1 | CNc1ccc(-c2c(-c3ccc(C#N)c(F)c3)nc(N3CCC(N)CC3)n(C)c2=O)cc1 [Example 90, 4-[2-(4-aminopiperidin-1-yl)-1-methyl-5-[4-(methylamino)phenyl]-6-oxopyrimidin-4-yl]-2-fluorobenzonitrile]
< 0.1 | < 0.1 | Cn1c(N2CCC(N)CC2)nc(-c2ccc(C#N)c(F)c2)c(-c2ccc(CCO)cc2)c1=O [Example 99, 4-[2-(4-aminopiperidin-1-yl)-5-[4-(2-hydroxyethyl)phenyl]-1-methyl-6-oxopyrimidin-4-yl]-2-fluorobenzonitrile]
< 0.1 | < 0.1 | Cn1c(N2CCC(N)CC2)nc(-c2ccc(C#N)c(F)c2)c(-c2ccc3ccn(C)c3c2)c1=O [Example 76, 4-[2-(4-amino-piperidin-1-yl)-1-methyl-5-(1-methyl-1H-indol-6-yl)-6-oxo-1,6-dihydro-pyrimidin-4-yl]-2-fluoro-benzonitrile]
< 0.1 | < 0.1 | CN(C)c1ncc(-c2c(-c3ccc(C#N)c(F)c3)nc(N3CCC(N)CC3)n(C)c2=O)cn1 [Example 49, 4-[2-(4-amino-piperidin-1-yl)-2′-dimethylamino-1-methyl-6-oxo-1,6-dihydro-[5,5′]bipyrimidinyl-4-yl]-2-fluoro-benzonitrile]
< 0.1 | < 0.1 | CCOc1ccc(-c2c(-c3ccc(C#N)c(F)c3)nc(N3CCC(N)CC3)n(C)c2=O)cc1 [Example 95, 4-[2-(4-aminopiperidin-1-yl)-5-(4-ethoxyphenyl)-1-methyl-6-oxopyrimidin-4-yl]-2-fluorobenzonitrile]
< 0.1 | < 0.1 | Cn1c(N2CCC(N)CC2)nc(-c2ccc(C#N)c(F)c2)c(-c2cccc(F)c2)c1=O [Example 102, 4-[2-(4-aminopiperidin-1-yl)-5-(3-fluorophenyl)-1-methyl-6-oxopyrimidin-4-yl]-2-fluorobenzonitrile]
< 0.1 | < 0.1 | Cn1c(N2CCC(N)CC2)nc(-c2ccc(C#N)c(F)c2)c(-c2cc(F)cc(F)c2)c1=O [Example 103, 4-[2-(4-aminopiperidin-1-yl)-5-(3,5-difluorophenyl)-1-methyl-6-oxopyrimidin-4-yl]-2-fluorobenzonitrile]
< 0.1 | < 0.1 | CN(C)c1ccc(-c2c(-c3ccc(C#N)c(F)c3)nc(N3CCC(N)CC3)n(C)c2=O)cc1 [Example 59, 4-[2-(4-amino-piperidin-1-yl)-5-(4-dimethylamino-phenyl)-1-methyl-6-oxo-1,6-dihydro-pyrimidin-4-yl]-2-fluoro-benzonitrile]
< 0.1 | < 0.1 | CN(C)c1ccc(-c2c(-c3ccc(C#N)c(F)c3)nc(N3CCC(N)CC3)n(C)c2=O)cn1 [Example 57, 4-[2-(4-amino-piperidin-1-yl)-5-(6-dimethylamino-pyridin-3-yl)-1-methyl-6-oxo-1,6-dihydro-pyrimidin-4-yl]-2-fluoro-benzonitrile]
< 0.1 | < 0.1 | Cn1c(N2CCC(N)CC2)nc(-c2ccc(C#N)c(F)c2)c(-c2ccc(F)c(F)c2)c1=O [Example 104, 4-[2-(4-aminopiperidin-1-yl)-5-(3,4-difluorophenyl)-1-methyl-6-oxopyrimidin-4-yl]-2-fluorobenzonitrile]

Second part, the compound before the results:

Compound | IC50 [1] [µM] | IC50 [2] [µM]
CN(C)c1ccc(-c2c(-c3ccc(C#N)cc3)nc(N3CCCNCC3)n(C)c2=O)cn1 [Example 67, 4-[2-[1,4]diazepan-1-yl-5-(6-dimethylamino-pyridin-3-yl)-1-methyl-6-oxo-1,6-dihydro-pyrimidin-4-yl]-benzonitrile] | < 0.1 | < 0.1
COc1c(F)cc(-c2c(-c3ccc(C#N)cc3)nc(N3CCC(N)CC3)n(C)c2=O)cc1F [Example 38, 4-[2-(4-aminopiperidyl)-5-(3,5-difluoro-4-methoxyphenyl)-1-methyl-6-oxohydropyrimidin-4-yl]benzenecarbonitrile] | < 0.1 | < 0.1
COc1ccc(-c2c(-c3ccc(C#N)c(F)c3)nc(NC[C@H]3CCNC3)n(C)c2=O)cc1 [Example 51, 2-fluoro-4-{5-(4-methoxy-phenyl)-1-methyl-6-oxo-2-[(3S)-(pyrrolidin-3-ylmethyl)-amino]-1,6-dihydro-pyrimidin-4-yl}-benzonitrile] | < 0.1 | 0.1 to 1
Cn1c(N2CCC(N)CC2)nc(-c2ccc(C#N)c(F)c2)c(-c2ccc3c(c2)CNC3=O)c1=O [Example 42, 4-[2-(4-amino-piperidin-1-yl)-1-methyl-6-oxo-5-(1-oxo-2,3-dihydro-1H-isoindol-5-yl)-1,6-dihydro-pyrimidin-4-yl]-2-fluoro-benzonitrile] | < 0.1 | 0.1 to 1
COc1ccc(-c2c(-c3ccc(C#N)c(F)c3)nc(N3CC(N)C3)n(C)c2=O)cc1 [Example 64, 4-[2-(3-amino-azetidin-1-yl)-5-(4-methoxy-phenyl)-1-methyl-6-oxo-1,6-dihydro-pyrimidin-4-yl]-2-fluoro-benzonitrile] | < 0.1 | 0.1 to 1
COc1ccc(-c2c(-c3ccc(C#N)c(F)c3)nc(N3CCC[C@H](N)C3)n(C)c2=O)cc1 [Example 31, 4-[2-((3S)-3-amino-piperidin-1-yl)-5-(4-methoxy-phenyl)-1-methyl-6-oxo-1,6-dihydro-pyrimidin-4-yl]-2-fluoro-benzonitrile] | < 0.1 | < 0.1
COc1ccc(-c2c(-c3ccc(C#N)c(F)c3)nc(N3CCC(N(C)C)CC3)n(C)c2=O)cn1 [Example 92, 4-[2-[4-(dimethylamino)piperidin-1-yl]-5-(6-methoxypyridin-3-yl)-1-methyl-6-oxopyrimidin-4-yl]-2-fluorobenzonitrile] | < 0.1 | < 0.1
Cn1c(N2CCC(N)CC2)nc(-c2ccc(C#N)cc2)c(-c2ccc(OCCO)cc2)c1=O [Example 97, 4-[2-(4-aminopiperidin-1-yl)-5-[4-(2-hydroxyethoxy)phenyl]-1-methyl-6-oxopyrimidin-4-yl]benzonitrile] | < 0.1 | < 0.1
COc1ccc(-c2c(-c3ccc(C#N)c(F)c3)nc(N3CCC(N)CC3)[nH]c2=O)cc1 [Example 122, 4-[2-(4-aminopiperidin-1-yl)-5-(4-methoxyphenyl)-6-oxo-1H-pyrimidin-4-yl]-2-fluorobenzonitrile] | < 0.1 | < 0.1
CCc1ccc(-c2c(-c3ccc(C#N)cc3)nc(N3CCC(N)CC3)n(C)c2=O)cn1 [Example 10, 4-[2-(4-amino-piperidin-1-yl)-5-(6-ethyl-pyridin-3-yl)-1-methyl-6-oxo-1,6-dihydro-pyrimidin-4-yl]-benzonitrile] | < 0.1 | 0.1 to 1
Cn1c(N2CCC(N)CC2)nc(-c2ccc(C#N)c(F)c2)c(C#CC2CCCC2)c1=O [Example 14, 4-[2-(4-amino-piperidin-1-yl)-5-cyclopentylethynyl-1-methyl-6-oxo-1,6-dihydro-pyrimidin-4-yl]-2-fluoro-benzonitrile] | < 0.1 | < 0.1
COc1ccc(-c2c(-c3ccc(C#N)c(F)c3)nc(N(C)C[C@H]3CCNC3)n(C)c2=O)cc1 [Example 54, 2-fluoro-4-[5-(4-methoxy-phenyl)-1-methyl-2-(methyl-(3S)-pyrrolidin-3-ylmethyl-amino)-6-oxo-1,6-dihydro-pyrimidin-4-yl]-benzonitrile] | < 0.1 | < 0.1
CNC1CCN(c2nc(-c3ccc(C#N)c(F)c3)c(-c3ccc(OC)nc3)c(=O)n2C)CC1 [Example 58, 2-fluoro-4-[5-(6-methoxy-pyridin-3-yl)-1-methyl-2-(4-methylamino-piperidin-1-yl)-6-oxo-1,6-dihydro-pyrimidin-4-yl]-benzonitrile] | < 0.1 | < 0.1
CNC1CCN(c2nc(-c3ccc(C#N)c(F)c3)c(-c3ccc(OC)c(F)c3)c(=O)n2C)CC1 [Example 12, 2-fluoro-4-[5-(3-fluoro-4-methoxy-phenyl)-1-methyl-2-(4-methylamino-piperidin-1-yl)-6-oxo-1,6-dihydro-pyrimidin-4-yl]-benzonitrile] | < 0.1 | < 0.1

From patent US10328077B2 (CELGENE CORPORATION, priority 2016, dated 2019)
